In assay [1] the test system is human estrogen receptor. The assay is described as follows: ER transcriptional activity on MMTV-ERE-LUC, CV-1 cells, ER co-expressed with PR-A. It is filed as cell-based. The procedure:
All values were normalized for transfection efficiency by simultaneous estimation of luciferase and β-galactocidase activities. The relative luciferase activity is calculated by dividing the normalized luciferase value at a given point by that obtained in the absence of transfected receptor or ligand. Data shown represent the mean +/- the average deviation from the mean of triplicate estimations.
Experimental protocols and data calculation are as described in FIG. 11. The experiment detailed above is representative of independent assays (N>3). Data shown represent the mean +/- the average deviation from the mean of triplicate estimations.
Vegeto et al., supra. Cells were plated into 96-well tissue culture plates. The vector DNA was introduced into the CV-1 cells using calcium phosphate coprecipitation as described herein. More specifically, 20 μg of DNA/ml of transfection buffer were used in each transfection. Each transfection mix included 0.5 μg of pRST7hER, 9.5 μg of MMTV-ERE-LUC, 5 μg of pCH110, (which contains the gene for β-galactosidase) as an internal control and 5 μg of PGEM4 DNA as a carrier. Depending on the experiment, 0.1 μg pSVhPR-A or pSVhPR-B and an amount of pSVXV2neo (Dr. Bert O'Malley, Baylor College of Medicine) to bring the total amount of DNA to 20 μg was added. The concentration of pXVhPR-A vector chosen was determined by performing the experiment at several different concentrations of vector, and then using that concentration that was optimal for transcriptional readout. The concentration of pSVhPR-B vector was chosen based upon the amount required to give an identical amount of immunoreactive PR-A and PR-B. After transfections using a Biomek 1000 automated laboratory workstation, the cells were incubated with the precipitate for 6 hours. Cells were washed with PBS and incubated for 40 hours with or without hormones as indicated. Cell extracts were prepared as previously described herein and assayed for luciferase (LUC) and β-galactosidase activities. The Normalized LUC activity was calculated by dividing the raw luciferase (×10^4) units for each point by the β-galactosidase activity [(OD415 nm ×10^5)/time min.] at that point.

Assay [2] deals with T1, human progesterone receptor isoform PR-A (Homo sapiens, UniProt P06401).
T1 sequence (P06401 165-933): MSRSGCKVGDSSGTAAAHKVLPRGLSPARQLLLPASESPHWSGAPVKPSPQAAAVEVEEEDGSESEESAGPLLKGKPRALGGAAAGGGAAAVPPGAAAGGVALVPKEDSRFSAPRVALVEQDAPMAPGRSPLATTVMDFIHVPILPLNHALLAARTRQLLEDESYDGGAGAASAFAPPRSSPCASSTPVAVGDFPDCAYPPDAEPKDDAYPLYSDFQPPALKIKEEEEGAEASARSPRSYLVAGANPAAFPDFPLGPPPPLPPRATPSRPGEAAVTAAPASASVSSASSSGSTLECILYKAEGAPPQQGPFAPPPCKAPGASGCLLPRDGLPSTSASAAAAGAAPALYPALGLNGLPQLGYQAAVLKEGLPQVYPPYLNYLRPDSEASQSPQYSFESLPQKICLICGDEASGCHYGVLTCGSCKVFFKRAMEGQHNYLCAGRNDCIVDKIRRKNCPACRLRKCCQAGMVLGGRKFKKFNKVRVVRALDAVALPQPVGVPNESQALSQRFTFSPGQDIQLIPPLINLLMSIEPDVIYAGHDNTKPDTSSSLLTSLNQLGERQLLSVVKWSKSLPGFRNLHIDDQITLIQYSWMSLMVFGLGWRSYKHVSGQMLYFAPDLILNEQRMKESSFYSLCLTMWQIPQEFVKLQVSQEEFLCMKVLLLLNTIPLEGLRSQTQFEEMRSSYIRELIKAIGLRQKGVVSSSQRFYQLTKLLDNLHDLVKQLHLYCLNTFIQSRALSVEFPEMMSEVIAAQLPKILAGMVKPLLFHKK
The assay is described as follows: PR-A transactivation of MMTV-LUC reporter, transient transfection. It is filed as cell-based. The following applies: 10^-7 M progesterone. Here is the method:
Cells were seeded in 12-well, 96-well or 10 cm tissue culture plates. […] 20 μg of DNA/ml of transfection buffer were used in each transfection reaction. In this mix, the concentration of the luciferase plasmids and that of the internal control plasmid pCH110 (Pharmacia, Inc.), which contains the gene for the β-galactosidase enzyme, remained constant ([…] of each plasmid DNA), while the receptor plasmid concentration varied as indicated for each experiment. Different amounts of receptor parental plasmid, pSV2-neo (Dr. Bert O'Malley, Baylor College of Medicine, Houston, Tex.) was included to keep constant the total amount of the SV40 enhancer vectors. pGEM4 plasmid DNA (Promega Biotech, Madison, Wis.) was added to balance the total DNA concentration to 20 g/reaction. For the 96-well plate experiments, transfections were performed on a Biomek 1000 Automated Laboratory Workstation (Beckman Instruments, Fullerton, Calif.).
Cells were seeded 24 hours prior to transfection in the fiat-bottom tissue culture plates ([…]) in phenol red-free DMEM containing 10% FCS. […] Using calcium phosphate co-precipitation, DNA solution was added dropwise with vortexing into an equal volume of 2X HBS pH 6.9 (280 mM NaCl. 50 mM HEPES, 1.5 mM Na2 HPO4) and precipitates were allowed to form for 20 minutes. Cells were transfected ( […] of DNA mix/well) for 6 hours and then washed with phosphate-bufferedsaline (PBS) to remove the precipitate. Cells were incubated for an additional 24 hours in phenol red-free medium containing 10% charcoal-treated FCS, with or without hormones as indicated in the text. Cell extracts were prepared as described by Berger et al., Supra, and assayed for luciferase and β-galactosidase activities. All determinations were performed in triplicates in at least two independent experiments, and were normalized for transfection efficiency by using β-galactosidase as an internal control.

The term IC50 denotes the concentration that inhibits the measured activity by half. For the compound `CC#C[C@]1(O)CC[C@H]2[C@@H]3CCC4=CC(=O)CCC4=C3[C@@H](c3ccc(C(C)=O)cc3)C[C@@]21C` [ZK112993], the IC50 in assay [1] (10^-7 M 17-β-estradiol, read-out: half maximal inhibition (IC50) of ER in the presence of hPR-A) came out at 0.5 nM. In addition, the “efficacy compared to the pure anti-estrogen ICI-164,384” value in assay [1] (PR-A co-expressed, 100% = 10^-7 M 17-β-estradiol + 10^-6 M ICI-164,384, FIG. 12) is “greater than 80%”.
As to `CC(=O)[C@H]1CC[C@H]2[C@@H]3CCC4=CC(=O)CC[C@]4(C)[C@H]3CC[C@]12C` [progesterone], in assay [1] (10 nM progesterone, hPR-A co-expressed, 10^-7 M 17β-estradiol, FIG. 11C), the “maximal inhibition of ER activation by 17-β-estradiol” value was determined as 55%. The “progesterone-induced activation of the MMTV promoter by PR-A” value in assay [2] (CV-1 cells, FIG. 2A) is reported as “no progesterone-induced activation of the MMTV promoter by PR-A was observed”. Besides, the maximal induction entry in assay [2] (HeLa cells, MMTV, 250 ng of transfected DNA, FIG. 2B) is listed as “ten-fold”. Also, in assay [2] (HepG2 cells, FIG. 2C), the “activation of the MMTV promoter by PR-A” value is “both PR-A and PR-B functioned as efficient activators”.
